Data set [1] in a line: flowability (coulabilité) test on the Hosokawa combined powder tester. As to conditions: for Angle de spatule / Angle de talus / Densité (non tassée): combiné Hosokawa. It is filed as physicochemical. The text has this:
Les propriétés de coulabilité et de dissolution du produit ainsi obtenu sont comparées à celle de paracétamol cristallisé paracétamol broyé (refus à 425 µ < 0,5 %, refus à 250 µ < 5 %) paracétamol broyé super fin (refus à 50 µ < 10 %, refus à 80 µ < 1 %) a) coulabilité : les produits sont testés sur le combiné Hosokawa commercialisé par Hosokawa Europe Ltd, St John's Estate, Tylers Green High Wycombe, Buckinghamshire, England.

Data set [2] is described as follows: dissolution of suspensions of 1, 2 and 3 g in 200 cm3 of water, stirred at room temperature. To be noted: insoluble filtered, dried and weighed after at most 10 minutes. The data set is classed as physicochemical. The source says: Les résultats suivants sont obtenus :
Setting [3] is: Concentration 5 g/l (1 g in 200 cm3 water).
[4] abbreviates: Concentration 10 g/l (2 g in 200 cm3 water).
The mark [5] stands for this setting: Concentration 15 g/l (3 g in 200 cm3 water).

With `CC(=O)Nc1ccc(O)cc1` [Aggloméré, paracétamol], in data set [1], the Angle de spatule was determined as 41°, the Angle de talus was 37° and the “Densité (non tassée)” value came to 400 kg/m3. Moreover, the coulabilité result in data set [1] (result in words, compared with the crystallised and ground products) is recorded as “aussi bonne que le produit cristallisé”. In data set [2] (setting [3]), this compound gave a Pourcentage dissous of 100. Further, in data set [2] (setting [4]), the Pourcentage dissous came out at 100. This compound came in with a Pourcentage dissous in data set [2] (setting [5]) of over 98.
For the compound `CC(=O)Nc1ccc(O)cc1` [Cristallisé, paracétamol], the Angle de spatule in data set [1] came to 39°. Further, the Angle de talus in data set [1] is 39°. The “Densité (non tassée)” value in data set [1] came out at 700 kg/m3. The Pourcentage dissous in data set [2] (setting [3]) is over 95; in data set [2] (setting [4]), 85; in data set [2] (setting [5]), 83.
As for `CC(=O)Nc1ccc(O)cc1` [Broyé, paracétamol], the Angle de spatule in data set [1] came to 74°. Further, the Angle de talus in data set [1] amounted to 56°. For the same compound, the “Densité (non tassée)” value in data set [1] is 280 kg/m3. The Pourcentage dissous is given as 100 in data set [2] (setting [3]), 100 in data set [2] (setting [4]) and over 98 in data set [2] (setting [5]).
Regarding `CC(=O)Nc1ccc(O)cc1` [Broyé super fin, paracétamol], in data set [1], the Angle de spatule was determined as 76°, the Angle de talus is listed as 60° and the “Densité (non tassée)” value was 150 kg/m3. Further, the Pourcentage dissous in data set [2] (setting [3]) is given as 100. In data set [2] (setting [4]), this compound gave a Pourcentage dissous of 100. In data set [2] (setting [5]), this compound displayed a Pourcentage dissous of over 98.

For the origin of these results see patent EP0219377A1, “Process for the preparation of spherical paracetamol agglomerates and products obtained thereby” (RHONE-POULENC SANTE, priority 1985, dated 1987).
